In PubChem BioAssay AID330 (DTP/NCI, 2004):
Values joined by “and” are separate entries in the source; they are usually repeats but may differ in a detail not shown here. Identical values can stand only once. Inconclusive results and toxic doses are left out. Numbered stars: 1 amine (or outer) side, 2 acyl side, 3 side chain; on linkers, the order of the positions; unused ones are H or OH. Bridge positions count the residues as written; N and C are the ends. Square brackets hold non-standard residues; d marks the D form. Peptide text beside a SMILES is read from it. I, II: the chains in the order shown. Actinocin(9to1) = Cc1c2oc3c(C)ccc(C(=O)[*:1])c3nc-2c(C(=O)[*:2])c(N)c1=O; NMeV = CN[CH](C(=O)O)C(C)C; Sar = CNCC(=O)O

System: P388 leukemia ip, CD2F1 mice, survival T/C
Assay: NCI In Vivo Anticancer Drug Screen. Data for tumor model P388 Leukemia (intraperitoneal) in CD2F1 (CDF1) mice
Settings: endpoint: median survival time, higher = longer survival
Procedure, shortened: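 Mice carrying the transplanted tumor received test compound or vehicle. Survival was recorded in each group, and the value is the treated-group measurement divided by that of the vehicle-treated control group.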

[1] = dose: 100.0 mg/kg/injection, schedule: Q04DX003 (ip), vehicle: saline
[2] = dose: 200.0 mg/kg/injection, schedule: Q04DX003 (ip), vehicle: saline
[3] = dose: 400.0 mg/kg/injection, schedule: Q04DX003 (ip), vehicle: saline
[4] = dose: 60.0 mg/kg/injection, schedule: Q01DX005 (ip), vehicle: saline with Tween-80
[5] = dose: 120.0 mg/kg/injection, schedule: Q01DX005 (ip), vehicle: saline with Tween-80
[6] = dose: 240.0 mg/kg/injection, schedule: Q01DX005 (ip), vehicle: saline with Tween-80

Structure (SMILES): O=C1C=CC(=O)N1Cc1ccco1
- T/C [1]: 90 % of control
- T/C [2]: 95 % of control
- T/C [3]: 95 % of control

Structure (SMILES): CC(C)=CCc1c(-c2ccc(O)cc2O)oc2c([C@H]3C=C(C)CC(c4ccc(O)cc4O)[C@@H]3C(=O)c3ccc(O)cc3O)c(O)cc(O)c2c1=O (stereo partly specified)
- T/C (dose: 8.75 mg/kg/injection, schedule: Q01DX005 (ip), vehicle: Klucel (hydroxypropylcellulose) (HPC)): 99 % of control
- T/C (dose: 17.5 mg/kg/injection, schedule: Q01DX005 (ip), vehicle: Klucel (hydroxypropylcellulose) (HPC)): 98 % of control
- T/C (dose: 35.0 mg/kg/injection, schedule: Q01DX005 (ip), vehicle: Klucel (hydroxypropylcellulose) (HPC)): 92 % of control
- T/C (dose: 70.0 mg/kg/injection, schedule: Q01DX005 (ip), vehicle: Klucel (hydroxypropylcellulose) (HPC)): 92 % of control
- T/C (dose: 140.0 mg/kg/injection, schedule: Q01DX005 (ip), vehicle: Klucel (hydroxypropylcellulose) (HPC)): 108 % of control

Structure (SMILES): CC([OH2+])CNCCN.CC([OH2+])CNCCN.O=[N+]([O-])[O-].[Cu+2] (stereo unspecified)
- T/C (dose: 50.0 mg/kg/injection, schedule: Q01DX009 (ip), vehicle: saline): 113 % of control

Structure (SMILES): COC(=O)c1cc(=O)n(-c2ccccc2)c(SC)n1
- T/C (dose: 6.25 mg/kg/injection, schedule: Q04DX002 (ip), vehicle: Klucel (hydroxypropylcellulose) (HPC)): 106 % of control
- T/C (dose: 12.5 mg/kg/injection, schedule: Q04DX002 (ip), vehicle: Klucel (hydroxypropylcellulose) (HPC)): 96 % of control
- T/C (dose: 25.0 mg/kg/injection, schedule: Q04DX002 (ip), vehicle: Klucel (hydroxypropylcellulose) (HPC)): 98 % of control
- T/C (dose: 50.0 mg/kg/injection, schedule: Q04DX002 (ip), vehicle: Klucel (hydroxypropylcellulose) (HPC)): 104 % of control
- T/C (dose: 100.0 mg/kg/injection, schedule: Q04DX002 (ip), vehicle: Klucel (hydroxypropylcellulose) (HPC)): 100 % of control and 98 % of control

Structure (SMILES): NCC[Se]CC(N)C(=O)O (stereo unspecified)
- T/C (dose: 6.25 mg/kg/injection, schedule: Q01DX009 (ip), vehicle: saline): 101 % of control
- T/C (dose: 12.5 mg/kg/injection, schedule: Q01DX009 (ip), vehicle: saline): 100 % of control
- T/C (dose: 25.0 mg/kg/injection, schedule: Q01DX009 (ip), vehicle: saline): 101 % of control

Structure (SMILES): NC1C([O-])OC(CO)C(O)C1O.O=C1OC(C(O)CO)C([O-])=C1[OH2+].[Cu+2] (stereo unspecified)
- T/C (dose: 6.25 mg/kg/injection, schedule: Q01DX005 (ip), vehicle: saline): 93 % of control
- T/C (dose: 12.5 mg/kg/injection, schedule: Q01DX005 (ip), vehicle: saline): 99 % of control

Structure (SMILES): Cc1cccc(OCCOC(=O)Nc2cccc(C(F)(F)F)c2)c1
- T/C [4]: 99 % of control
- T/C [5]: 96 % of control
- T/C [6]: 96 % of control

Structure (SMILES): CCOC(=O)\C(C#N)=C/C=C(C)/C(C)=C/Nc1ccc([N+](=O)[O-])cc1[N+](=O)[O-]
- T/C (dose: 50.0 mg/kg/injection, schedule: Q01DX005 (ip), vehicle: Klucel (hydroxypropylcellulose) (HPC)): 101 % of control
- T/C (dose: 100.0 mg/kg/injection, schedule: Q01DX005 (ip), vehicle: Klucel (hydroxypropylcellulose) (HPC)): 91 % of control
- T/C (dose: 200.0 mg/kg/injection, schedule: Q01DX005 (ip), vehicle: Klucel (hydroxypropylcellulose) (HPC)): 91 % of control

Structure (SMILES): COc1cc[n+]([O-])cc1
- T/C (dose: 100.0 mg/kg/injection, schedule: Q01DX009 (ip), vehicle: saline): 95 % of control
- T/C (dose: 200.0 mg/kg/injection, schedule: Q01DX009 (ip), vehicle: saline): 90 % of control
- T/C (dose: 400.0 mg/kg/injection, schedule: Q01DX009 (ip), vehicle: saline): 95 % of control

Structure (SMILES): Cc1c2oc3c(C)ccc(C(=O)NC4C(=O)NC(C(C)C)C(=O)N5CCCC5C(=O)N(C)CC(=O)N(C)C(C(C)C)C(=O)OC4C)c3nc-2c(C(=O)NC2C(=O)NC(C(C)C)C(=O)N3CCCC3C(=O)N(C)CC(=O)N(C)C(C(C)C)C(=O)OC2C)c(N)c1=O (stereo unspecified) (I: TVP[Sar][NMeV] / II: TVP[Sar][NMeV]; ester I:1-I:C, II:1-II:C; linker I:N-II:N via Actinocin(9to1); configuration not given here)
- T/C (dose: 0.1 mg/kg/injection, schedule: Q01DX009 (ip), vehicle: distilled water + Tween-80): 178 % of control
- T/C (dose: 0.2 mg/kg/injection, schedule: Q01DX009 (ip), vehicle: distilled water + Tween-80): 190 % of control
- T/C (dose: 0.2 mg/kg/injection, schedule: Q01DX009 (ip), vehicle: water): 151 % of control
- T/C (dose: 0.4 mg/kg/injection, schedule: Q01DX009 (ip), vehicle: distilled water + Tween-80): 207 % of control
- T/C (dose: 0.4 mg/kg/injection, schedule: Q01DX009 (ip), vehicle: water): 174 % of control

Structure (SMILES): C=CCN1C(=O)[N+](C)(C)N=C1[O-]
- T/C [1]: 106 % of control
- T/C [2]: 106 % of control
- T/C [3]: 101 % of control

Structure (SMILES): NC(=O)c1coc2c1C(=O)c1ccc3ccccc3c1CC2
- T/C [4]: 102 % of control
- T/C [5]: 102 % of control
- T/C [6]: 108 % of control

Structure (SMILES): N#CC1N(C(=O)Oc2ccccc2)c2ccccc2N1C(=O)Oc1ccccc1
- T/C (dose: 7.5 mg/kg/injection, schedule: Q01DX005 (ip), vehicle: saline with Tween-80): 92 % of control
- T/C (dose: 15.0 mg/kg/injection, schedule: Q01DX005 (ip), vehicle: saline with Tween-80): 91 % of control
